In paper PMC3141093 (2011) one finds Ki and Kd data, which are given here for two molecules.

Assay [1] deals with anti-METH monoclonal antibody (mAb) generated from mice immunized with (+)-METH HSMO9 BSA MCV. The assay can be described thus: mAb affinity. The assay is classed as binding, Mus musculus.
For assay [2] the target is unchanged. As to the kind of experiment: mAb affinity. The assay is classed as binding, Mus musculus. This is another data set of the same source.

What is called Ki is a measure of affinity in units of concentration, obtained from inhibition or displacement. A lower Ki goes with tighter binding. As usually defined, the Kd is a measure of binding affinity in units of concentration. A high value points to lower affinity.

For the molecule `CN[C@@H](C)Cc1ccc2c(c1)OCO2` [(+)-MDMA], the Ki in assay [1] turned out to be 1.1 nM.
On to `CN[C@@H](C)Cc1ccccc1` [(+)-METH], for which the Kd in assay [2] is 6.8 nM.
